Test results as given in ChEMBL document CHEMBL2439971, “Design, synthesis and antiproliferative evaluation of fluorenone analogs with DNA topoisomerase I inhibitory properties” (Bioorg Med Chem, 2013).
Active and inactive are the calls of the source. No cut-off for these calls is given here.

Tests used:
HOP-62 = assay: Cytotoxicity against human HOP62 cells at 10 uM after 48 hrs by sulforhodamine B assay relative to control; type: functional
UACC-62 = assay: Cytotoxicity against human UACC62 cells at 10 uM after 48 hrs by sulforhodamine B assay relative to control; type: functional
HCT-116 = assay: Cytotoxicity against human HCT116 cells at 10 uM after 48 hrs by sulforhodamine B assay relative to control; type: functional
SW-620 = assay: Cytotoxicity against human SW620 cells at 10 uM after 48 hrs by sulforhodamine B assay relative to control; type: functional
IGROV-1 = assay: Cytotoxicity against human IGROV1 cells at 10 uM after 48 hrs by sulforhodamine B assay relative to control; type: functional
NCI-H322M = assay: Cytotoxicity against human NCI-H322M cells at 10 uM after 48 hrs by sulforhodamine B assay relative to control; type: functional
PC-3 [1] = assay: Cytotoxicity against human PC3 cells after 48 hrs by sulforhodamine B assay; type: functional, cell-based; conditions: PC-3, 48 h
OVCAR-8 = assay: Cytotoxicity against human OVCAR8 cells at 10 uM after 48 hrs by sulforhodamine B assay relative to control; type: functional
SNB-75 = assay: Cytotoxicity against human SNB75 cells at 10 uM after 48 hrs by sulforhodamine B assay relative to control; type: functional
SN12C = assay: Cytotoxicity against human SN12C cells at 10 uM after 48 hrs by sulforhodamine B assay relative to control; type: functional
RXF 393 = assay: Cytotoxicity against human RXF393 cells at 10 uM after 48 hrs by sulforhodamine B assay relative to control; type: functional
HCC 2998 = assay: Cytotoxicity against human HCC2998 cells at 10 uM after 48 hrs by sulforhodamine B assay relative to control; type: functional
[2] = Cytotoxicity against human EKVX cells at 10 uM after 48 hrs by sulforhodamine B assay relative to control; type: functional
T47D = assay: Cytotoxicity against human T47D cells at 10 uM after 48 hrs by sulforhodamine B assay relative to control; type: functional
Homo sapiens = organism: Homo sapiens; assay: Inhibition of telomerase (unknown origin) at 10 uM TRAP assay
SK-MEL-28 = assay: Cytotoxicity against human SK-MEL-28 cells at 10 uM after 48 hrs by sulforhodamine B assay relative to control; type: functional
RPMI-8226 = assay: Cytotoxicity against human RPMI8226 cells at 10 uM after 48 hrs by sulforhodamine B assay relative to control; type: functional
OVCAR-4 = assay: Cytotoxicity against human OVCAR4 cells at 10 uM after 48 hrs by sulforhodamine B assay relative to control; type: functional
OVCAR-5 = assay: Cytotoxicity against human OVCAR5 cells at 10 uM after 48 hrs by sulforhodamine B assay relative to control; type: functional
SR = assay: Cytotoxicity against human SR cells at 10 uM after 48 hrs by sulforhodamine B assay relative to control; type: functional
HCT-15 = assay: Cytotoxicity against human HCT15 cells at 10 uM after 48 hrs by sulforhodamine B assay relative to control; type: functional
COLO 205 = assay: Cytotoxicity against human COLO205 cells at 10 uM after 48 hrs by sulforhodamine B assay relative to control; type: functional
LOX IMVI = assay: Cytotoxicity against human LOXIMVI cells at 10 uM after 48 hrs by sulforhodamine B assay relative to control; type: functional
NCI-H226 = assay: Cytotoxicity against human NCI-H226 cells at 10 uM after 48 hrs by sulforhodamine B assay relative to control; type: functional
DU-145 = assay: Cytotoxicity against human DU145 cells at 10 uM after 48 hrs by sulforhodamine B assay relative to control; type: functional
MDA-MB-231 = assay: Cytotoxicity against human MDA-MB-231 cells at 10 uM after 48 hrs by sulforhodamine B assay relative to control; type: functional
SF-268 = assay: Cytotoxicity against human SF268 cells at 10 uM after 48 hrs by sulforhodamine B assay relative to control; type: functional
NCI/ADR-RES = assay: Cytotoxicity against human NCI/ADR-RES cells at 10 uM after 48 hrs by sulforhodamine B assay relative to control; type: functional
SF-539 = assay: Cytotoxicity against human SF539 cells at 10 uM after 48 hrs by sulforhodamine B assay relative to control; type: functional
CAKI-1 = assay: Cytotoxicity against human CAKI-1 cells at 10 uM after 48 hrs by sulforhodamine B assay relative to control; type: functional
[3] = Cytotoxicity against human Hs 578T cells at 10 uM after 48 hrs by sulforhodamine B assay relative to control; type: functional
HL-60(TB) = assay: Cytotoxicity against human HL-60(TB) cells at 10 uM after 48 hrs by sulforhodamine B assay relative to control; type: functional
U-251 = assay: Cytotoxicity against human U251 cells at 10 uM after 48 hrs by sulforhodamine B assay relative to control; type: functional
M14 = assay: Cytotoxicity against human M14 cells at 10 uM after 48 hrs by sulforhodamine B assay relative to control; type: functional
BT-549 = assay: Cytotoxicity against human BT549 cells at 10 uM after 48 hrs by sulforhodamine B assay relative to control; type: functional
SF-295 = assay: Cytotoxicity against human SF295 cells at 10 uM after 48 hrs by sulforhodamine B assay relative to control; type: functional
UO-31 = assay: Cytotoxicity against human UO31 cells at 10 uM after 48 hrs by sulforhodamine B assay relative to control; type: functional
HT-29 = assay: Cytotoxicity against human HT-29 cells at 10 uM after 48 hrs by sulforhodamine B assay relative to control; type: functional
TK-10 = assay: Cytotoxicity against human TK10 cells at 10 uM after 48 hrs by sulforhodamine B assay relative to control; type: functional
NCI-H460 = assay: Cytotoxicity against human NCI-H460 cells at 10 uM after 48 hrs by sulforhodamine B assay relative to control; type: functional
MDA-MB-468 = assay: Cytotoxicity against human MDA-MB-468 cells at 10 uM after 48 hrs by sulforhodamine B assay relative to control; type: functional
CCRF-CEM = assay: Cytotoxicity against human CCRF-CEM cells at 10 uM after 48 hrs by sulforhodamine B assay relative to control; type: functional
Malme-3M = assay: Cytotoxicity against human MALME-3M cells at 10 uM after 48 hrs by sulforhodamine B assay relative to control; type: functional
MOLT-4 = assay: Cytotoxicity against human MOLT4 cells at 10 uM after 48 hrs by sulforhodamine B assay relative to control; type: functional
SK-MEL-2 = assay: Cytotoxicity against human SK-MEL-2 cells at 10 uM after 48 hrs by sulforhodamine B assay relative to control; type: functional
NCI-H522 = assay: Cytotoxicity against human NCI-H522 cells at 10 uM after 48 hrs by sulforhodamine B assay relative to control; type: functional
ACHN = assay: Cytotoxicity against human ACHN cells at 10 uM after 48 hrs by sulforhodamine B assay relative to control; type: functional
A549 = assay: Cytotoxicity against human A549 cells at 10 uM after 48 hrs by sulforhodamine B assay relative to control; type: functional
SK-MEL-5 = assay: Cytotoxicity against human SK-MEL-5 cells at 10 uM after 48 hrs by sulforhodamine B assay relative to control; type: functional
PC-3 [4] = assay: Cytotoxicity against human PC3 cells at 10 uM after 48 hrs by sulforhodamine B assay relative to control; type: functional
NCI-H23 = assay: Cytotoxicity against human NCI-H23 cells at 10 uM after 48 hrs by sulforhodamine B assay relative to control; type: functional
SNB-19 = assay: Cytotoxicity against human SNB19 cells at 10 uM after 48 hrs by sulforhodamine B assay relative to control; type: functional
OVCAR-3 = assay: Cytotoxicity against human OVCAR3 cells at 10 uM after 48 hrs by sulforhodamine B assay relative to control; type: functional
K562 = assay: Cytotoxicity against human K562 cells at 10 uM after 48 hrs by sulforhodamine B assay relative to control; type: functional
KM12 = assay: Cytotoxicity against human KM12 cells at 10 uM after 48 hrs by sulforhodamine B assay relative to control; type: functional
UACC-257 = assay: Cytotoxicity against human UACC257 cells at 10 uM after 48 hrs by sulforhodamine B assay relative to control; type: functional
MCF7 = assay: Cytotoxicity against human MCF7 cells at 10 uM after 48 hrs by sulforhodamine B assay relative to control; type: functional
786-0 = assay: Cytotoxicity against human 786-0 cells at 10 uM after 48 hrs by sulforhodamine B assay relative to control; type: functional
MDA-MB-435 = assay: Cytotoxicity against human MDA-MB-435 cells at 10 uM after 48 hrs by sulforhodamine B assay relative to control; type: functional

CCNCC(=O)Nc1ccc2c(c1)C(=O)c1cc(NC(=O)CNCC)ccc1-2
Activity (HOP-62): 71.54%
Activity (UACC-62): 110.09%
Activity (HCT-116): 64.57%
Activity (SW-620): 51.79%
Activity (IGROV-1): 97.57%
Activity (NCI-H322M): 67.74%
IC50 (PC-3 [1]): 4.38 µM
Activity (OVCAR-8): 61.15%
Activity (SNB-75): 92.67%
Activity (SN12C): 77.91%
Activity (RXF 393): 91.9%
Activity (HCC 2998): 85.37%
Activity [2]: 90.83%
Activity (T47D): 88.81%
inhibition (Homo sapiens): inactive
Activity (SK-MEL-28): 82.07%
Activity (RPMI-8226): 91.09%
Activity (OVCAR-4): 69.72%
Activity (OVCAR-5): 116.02%
Activity (SR): 81.75%
Activity (HCT-15): 95.25%
Activity (COLO 205): 64.33%
Activity (LOX IMVI): 72.19%
Activity (NCI-H226): 99.42%
Activity (DU-145): 69.67%
Activity (MDA-MB-231): 77.38%
Activity (SF-268): 78.21%
Activity (NCI/ADR-RES): 93.46%
Activity (SF-539): 102.19%
Activity (CAKI-1): 94.69%
Activity [3]: 91.4%
Activity (HL-60(TB)): 95.53%
Activity (U-251): 55.71%
Activity (M14): 90.37%
Activity (BT-549): 123.2%
Activity (SF-295): 91.26%
Activity (UO-31): 89.54%
Activity (HT-29): 48.89%
Activity (TK-10): 88.37%
Activity (NCI-H460): 70.36%
Activity (MDA-MB-468): 63.55%
Activity (CCRF-CEM): 66.36%
Activity (Malme-3M): 113.96%
Activity (MOLT-4): 61.34%
Activity (SK-MEL-2): 106.9%
Activity (NCI-H522): 82.16%
Activity (ACHN): 69.43%
Activity (A549): 62.52%
Activity (SK-MEL-5): 93.43%
Activity (PC-3 [4]): 67.64%
Activity (NCI-H23): 78.18%
Activity (SNB-19): 95.76%
Activity (OVCAR-3): 90.91%
Activity (K562): 53.9%
Activity (KM12): 77.37%
Activity (UACC-257): 97.32%
Activity (MCF7): 40.53%
Activity (786-0): 101.23%
Activity (MDA-MB-435): 65.72%

CCCNCC(=O)Nc1ccc2c(c1)C(=O)c1cc(NC(=O)CNCCC)ccc1-2
Activity (HOP-62): 70.78%
Activity (UACC-62): 108.2%
Activity (HCT-116): 34.22%
Activity (SW-620): 33.33%
Activity (IGROV-1): 67.45%
Activity (NCI-H322M): 55.32%
IC50 (PC-3 [1]): 5.46 µM
Activity (OVCAR-8): 54.46%
Activity (SNB-75): 90.2%
Activity (SN12C): 79.58%
Activity (RXF 393): 64.2%
Activity (HCC 2998): 75.34%
Activity [2]: 88.56%
Activity (T47D): 100.55%
inhibition (Homo sapiens): inactive
Activity (SK-MEL-28): 91.46%
Activity (RPMI-8226): 62.56%
Activity (OVCAR-4): 65.9%
Activity (OVCAR-5): 115.75%
Activity (SR): 26.93%
Activity (HCT-15): 82.71%
Activity (COLO 205): 53.11%
Activity (LOX IMVI): 63.5%
Activity (NCI-H226): 104.17%
Activity (DU-145): 68.94%
Activity (MDA-MB-231): 53.48%
Activity (SF-268): 81.33%
Activity (NCI/ADR-RES): 90.61%
Activity (SF-539): 86.19%
Activity (CAKI-1): 84.88%
Activity [3]: 109.04%
Activity (HL-60(TB)): 78.59%
Activity (U-251): 49.16%
Activity (M14): 84.8%
Activity (BT-549): 97.53%
Activity (SF-295): 78.31%
Activity (UO-31): 59.44%
Activity (HT-29): 7.11%
Activity (TK-10): 101.22%
Activity (NCI-H460): 47.28%
Activity (MDA-MB-468): 60.47%
Activity (CCRF-CEM): 43.54%
Activity (Malme-3M): 111.89%
Activity (MOLT-4): 41.29%
Activity (SK-MEL-2): 114.94%
Activity (NCI-H522): 63.92%
Activity (ACHN): 72.93%
Activity (A549): 44.21%
Activity (SK-MEL-5): 93.78%
Activity (PC-3 [4]): 63.47%
Activity (NCI-H23): 81.96%
Activity (SNB-19): 96.69%
Activity (OVCAR-3): 101.73%
Activity (K562): 1.15%
Activity (KM12): 65.12%
Activity (UACC-257): 113.51%
Activity (MCF7): 42.23%
Activity (786-0): 82.05%
Activity (MDA-MB-435): 74.91%
